# Patent US8258134B2, “Pyridazinone glucokinase activators” (Hoffmann-La Roche Inc., priority 2008, dated 2012)
# Target: T1, Recombinant human liver GK1 (GST-GK) (Homo sapiens, UniProt P35557)
# T1 construct: made in house; host or cells: E. coli
# T1 sequence (P35557 1-466 isoform P35557-2): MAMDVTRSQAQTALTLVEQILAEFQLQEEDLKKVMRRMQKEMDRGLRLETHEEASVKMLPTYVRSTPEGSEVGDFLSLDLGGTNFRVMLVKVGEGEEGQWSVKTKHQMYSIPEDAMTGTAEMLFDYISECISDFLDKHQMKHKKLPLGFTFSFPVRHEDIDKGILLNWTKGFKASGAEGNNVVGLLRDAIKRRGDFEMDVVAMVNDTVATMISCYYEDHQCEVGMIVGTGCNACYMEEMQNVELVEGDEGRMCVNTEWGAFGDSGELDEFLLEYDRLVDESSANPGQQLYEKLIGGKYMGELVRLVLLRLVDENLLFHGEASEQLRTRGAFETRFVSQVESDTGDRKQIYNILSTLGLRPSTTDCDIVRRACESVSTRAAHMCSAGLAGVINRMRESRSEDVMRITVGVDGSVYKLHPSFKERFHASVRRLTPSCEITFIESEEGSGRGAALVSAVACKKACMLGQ
# Test: Glucokinase in vitro assay (G6PDH-coupled NADH generation, OD340)
# Type: biochemical
# Conditions: 5 mM D-glucose, 30° C., pH 7.1, 10% DMSO
# Procedure: Glucokinase In Vitro Assay Protocol: Glucokinase (GK) was assayed by coupling the production of glucose-6-phosphate to the generation of NADH with glucose-6-phosphate dehydrogenase (G6PDH, 0.75-1 k units/mg; Boehringer Mannheim, Indianapolis, Ind.) from Leuconostoc mesenteroides as the coupling enzyme (Scheme 2):
# Recombinant human liver GK1 was expressed in E. coli as a glutathione S-transferase fusion protein (GST-GK) [Liang et al, 1995] and was purified by chromatography over a glutathione-Sepharose 4B affinity column using the procedure provided by the manufacturer (Amersham Pharmacia Biotech, Piscataway, N.J.).
# The assay was conducted at 30° C. in a flat bottom 96-well tissue culture plate from Costar (Cambridge, Mass.) with a final incubation volume of 120 μL. The incubation reaction contained the following: 25 mM Hepes buffer (pH 7.1), 25 mM KCl, 5 mM D-glucose, 1 mM ATP, 1.8 mM NAD, 2 mM MgCl2, 1 μM sorbitol-6-phosphate, 1 mM dithiothreitol, test drug or 10% DMSO, ˜7 units/ml G6PDH, and GK (see below). All organic reagents were >98% pure and were from Boehringer Mannheim with the exceptions of D-glucose and Hepes which were from Sigma Chemical Co, St Louis, Mo. Test compounds were dissolved in DMSO and were added to the incubation reaction minus GST-GK in a volume of 12 μL to yield a final DMSO concentration of 10%. This mix was pre-incubated in the temperature controlled chamber of a SPECTRAmax 250 microplate spectrophotometer (Molecular Devices Corporation, Sunnyvale, Calif.) for 10 minutes to allow temperature equilibrium and then the reaction was started by the addition of 20 μL GST-GK.
# After addition of enzyme, the increase in optical density (OD) at 340 nm was monitored spectrophotometrically to determine the rate of change (OD340 per min). The GK activity (OD340/min) in control wells (10% DMSO minus GK activators) was compared with the activity in wells containing test GK activators, and the concentration of activator that produced a 50% increase in the activity of GK, i.e., the SC1.5, was calculated. The table below provides the in vitro glucokinase activity for the compounds in the Examples: […]
row,Compound,SC1.5 average (concentration of activator that produced a 50% increase in the activity of GK) [µM]
1,"O=C(Nc1ccn(CCO)n1)C(CC1CCOCC1)n1ncc(Oc2c(F)cccc2F)cc1=O (stereo not shown) [Example 53, 2-[4-(2,6-Difluoro-phenoxy)-6-oxo-6H-pyridazin-1-yl]-N-[1-(2-hydroxy-ethyl)-1H-pyrazol-3-yl]-3-(tetrahydro-pyran-4-yl)-propionamide]",0.469
2,"CC(C)(O)Cn1ccc(NC(=O)C(CC2CCCC2)n2ncc(Oc3cccc4c3OC(C)(C)C4)cc2=O)n1 (stereo not shown) [Example 89, 3-Cyclopentyl-2-[4-(2,2-dimethyl-2,3-dihydro-benzofuran-7-yloxy)-6-oxo-6H-pyridazin-1-yl]-N-[1-(2-hydroxy-2-methyl-propyl)-1H-pyrazol-3-yl]-propionamide]",0.568
3,"CC(C)(O)Cn1ccc(NC(=O)[C@@H](CC2CCCC2)n2ncc(Oc3cccc4c3CCCC4)cc2=O)n1 [Example 17B, (R)-3-Cyclopentyl-N-[1-(2-hydroxy-2-methyl-propyl)-1H-pyrazol-3-yl]-2-[6-oxo-4-(5,6,7,8-tetrahydro-naphthalen-1-yloxy)-6H-pyridazin-1-yl]-propionamide]",9.14
4,"Cc1ccc(Oc2cnn(C(CC3CCCC3)C(=O)Nc3ccn(C[C@@H](O)CO)n3)c(=O)c2)c2c1CCC2 (stereo partly drawn) [Example 93, 3-Cyclopentyl-N-[1-((R)-2,3-dihydroxy-propyl)-1H-pyrazol-3-yl]-2-[4-(7-methyl-indan-4-yloxy)-6-oxo-6H-pyridazin-1-yl]-propionamide]",0.114
5,"O=C(Nc1ccn(CCO)n1)[C@@H](CC1CCCC1)n1ncc(Oc2c(F)cccc2F)cc1=O [Example 60B, (R)-3-Cyclopentyl-2-[4-(2,6-difluoro-phenoxy)-6-oxo-6H-pyridazin-1-yl]-N-[1-(2-hydroxy-ethyl)-1H-pyrazol-3-yl]-propionamide]",1.942
6,"CC(C)(O)Cn1ccc(NC(=O)C(CC2CCCC2)n2ncc(Oc3ccccc3N3CCOCC3)cc2=O)n1 (stereo not shown) [Example 34, 3-Cyclopentyl-N-[1-(2-hydroxy-2-methyl-propyl)-1H-pyrazol-3-yl]-2-[4-(2-morpholin-4-yl-phenoxy)-6-oxo-6H-pyridazin-1-yl]-propionamide]",1.72
7,"CC(C)(O)Cn1ccc(NC(=O)C(CC2CCCCC2)n2ncc(Oc3c(F)cccc3F)cc2=O)n1 (stereo not shown) [Example 51, 3-Cyclohexyl-2-[4-(2,6-difluoro-phenoxy)-6-oxo-6H-pyridazin-1-yl]-N-[1-(2-hydroxy-2-methyl-propyl)-1H-pyrazol-3-yl]-propionamide]",0.087
8,"CC(C)CC(C(=O)Nc1ccn(C[C@@H](O)CO)n1)n1ncc(Oc2cccc3c2CCCC3)cc1=O (stereo partly drawn) [Example 110, 4-Methyl-2-[6-oxo-4-(5,6,7,8-tetrahydro-naphthalen-1-yloxy)-6H-pyridazin-1-yl]-pentanoic acid [1-((R)-2,3-dihydroxy-propyl)-1H-pyrazol-3-yl]-amide]",0.29
9,"CC(C)(O)Cn1ccc(NC(=O)C(CC2CCCC2)n2ncc(Oc3ccccc3C3CCCCC3)cc2=O)n1 (stereo not shown) [Example 21, 2-[4-(2-Cyclohexyl-phenoxy)-6-oxo-6H-pyridazin-1-yl]-3-cyclopentyl-N-[1-(2-hydroxy-2-methyl-propyl)-1H-pyrazol-3-yl]-propionamide]",0.873
10,"Cc1ccc(F)c(Oc2cnn(C(CC3CCCC3)C(=O)Nc3ccn(C[C@@H](O)CO)n3)c(=O)c2)c1 (stereo partly drawn) [Example 100, 3-Cyclopentyl-N-[1-((R)-2,3-dihydroxy-propyl)-1H-pyrazol-3-yl]-2-[4-(2-fluoro-5-methyl-phenoxy)-6-oxo-6H-pyridazin-1-yl]-propionamide]",0.101
